Data on 22 compounds can be found in US20170334899A1, “AMINO-SUBSTITUTED ISOTHIAZOLES” (Bayer Pharma Aktiengesellschaft, priority 2014, published 2017).

Bounds are passed on as bounds.

In this assay the target is T1, CDK2/CycE (Homo sapiens, UniProt P24941).
T1 construct: GST; purchased ProQinase GmbH (Freiburg, Germany); host or cells: insect cells (Sf9)
Kind of assay: CDK2/CycE kinase assay (TR-FRET). Type of assay: biochemical. As to conditions: avg, read-out: CDK2 avg (IC50 [mol/l]). The method in brief: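 Read-out is a TR-FRET 665/620 nm emission ratio from EDTA-stopped reactions detected with anti-pRB(pSer807/pSer811), Eu-labelled anti-mouse IgG and streptavidin-XL665, scaled between no-enzyme and uninhibited wells. Reaction: Sf9-expressed GST-CDK2/GST-CycE, 15 min compound preincubation, 10 μM ATP, 0.75 μM biotin-peptide, 25 min, 22° C., pH 8.0 Tris buffer.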
In general terms: In TR-FRET formats the signal depends on donor and acceptor labels being close together.
With `Cc1nsc(Nc2cncc(C(F)(F)F)n2)c1C(=O)Nc1ccc(OCCCO)nc1` [Example 278, N-[6-(3-hydroxypropoxy)pyridin-3-yl]-3-methyl-5-{[6-(trifluoromethyl)pyrazin-2-yl]amino}-1,2-thiazole-4-carboxamide], the IC50 is over 20 µM.

With `Cc1nsc(Nc2cnc(C(F)(F)F)cn2)c1C(=O)Nc1ccc(F)c(OCC2CCN(CCF)CC2)c1` [Example 309, N-(4-fluoro-3-{[1-(2-fluoroethyl)piperidin-4-yl]methoxy}phenyl)-3-methyl-5-{[5-(trifluoromethyl)pyrazin-2-yl]amino}-1,2-thiazole-4-carboxamide], the IC50 is at least 20 µM.

Turning to `Cc1nsc(Nc2cnc(C(F)(F)F)cn2)c1C(=O)Nc1ccc(F)c(OCC2CCN(C(CF)CF)C2)c1` (stereo not shown) [Example 320, N-(3-{[1-(1,3-difluoropropan-2-yl)pyrrolidin-3-yl]methoxy}-4-fluorophenyl)-3-methyl-5-{[5-(trifluoromethyl)pyrazin-2-yl]amino}-1,2-thiazole-4-carboxamide], the IC50 was at least 20 µM.

For `Cc1nsc(Nc2cnc(C(F)(F)F)cn2)c1C(=O)Nc1ccc(OC2CCN(C(CF)CF)C2)nc1` (stereo not shown) [Example 313, N-(6-{[1-(1,3-difluoropropan-2-yl)pyrrolidin-3-yl]oxy}pyridin-3-yl)-3-methyl-5-{[5-(trifluoromethyl)pyrazin-2-yl]amino}-1,2-thiazole-4-carboxamide], the IC50 was at least 20 µM.

As to `Cc1nsc(Nc2cnc(C(F)(F)F)cn2)c1C(=O)Nc1ccc(F)c(OCCCNCC(F)(F)F)c1` [Example 306, N-(4-fluoro-3-{3-[(2,2,2-trifluoroethyl)amino]propoxy}phenyl)-3-methyl-5-{[5-(trifluoromethyl)pyrazin-2-yl]amino}-1,2-thiazole-4-carboxamide], the IC50 was at least 20 µM.

In the case of `Cc1nsc(Nc2cnc3ccccc3n2)c1C(=O)Nc1cccc(NS(=O)(=O)C2CCN(C(=O)OC(C)(C)C)C2)c1` (stereo not shown) [Example 290, tert-butyl 3-{[3-({[3-methyl-5-(quinoxalin-2-ylamino)-1,2-thiazol-4-yl]carbonyl}amino)phenyl]sulfamoyl} pyrrolidine-1-carboxylate], the IC50 worked out at 19 µM.

`Cc1nsc(Nc2cncc(C(F)(F)F)n2)c1C(=O)Nc1ccc(F)c(OC2CCN(CC(F)(F)F)CC2)c1` [Example 267, N-(4-fluoro-3-{[1-(2,2,2-trifluoroethyl)piperidin-4-yl]oxy}phenyl)-3-methyl-5-{[6-(trifluoromethyl)pyrazin-2-yl]amino}-1,2-thiazole-4-carboxamide]: the IC50 was over 20 µM.

Regarding `CCNC(=O)c1cccc(NC(=O)c2c(C)nsc2Nc2cnc3ccccc3n2)c1` [Example 251, N-[3-(ethylcarbamoyl)phenyl]-3-methyl-5-(quinoxalin-2-ylamino)-1,2-thiazole-4-carboxamide], the IC50 was over 20 µM.

On to `Cc1nsc(Nc2cnc(C(F)(F)F)cn2)c1C(=O)Nc1ccc(OC2CCN(CCC(F)(F)F)C2)nc1` (stereo not shown) [Example 298, 3-methyl-5-{[5-(trifluoromethyl)pyrazin-2-yl]amino}-N-(6-{[1-(3,3,3-trifluoropropyl)pyrrolidin-3-yl]oxy}pyridin-3-yl)-1,2-thiazole-4-carboxamide], for which the IC50 is over 20 µM.

With `Cc1nsc(Nc2cnc3ccccc3n2)c1C(=O)Nc1cccc(NS(=O)(=O)C2CN(CCF)C2)c1` [Example 287, N-[3-({[1-(2-fluoroethyl)azetidin-3-yl]sulfonyl}amino)phenyl]-3-methyl-5-(quinoxalin-2-ylamino)-1,2-thiazole-4-carboxamide], the IC50 is over 20 µM.

Take `Cc1nsc(Nc2cncc(C(F)(F)F)n2)c1C(=O)Nc1ccc(C(=O)N2CCN(CC(F)F)CC2)cc1` [Example 273, N-(4-{[4-(2,2-difluoroethyl)piperazin-1-yl]carbonyl}phenyl)-3-methyl-5-{[6-(trifluoromethyl)pyrazin-2-yl]amino}-1,2-thiazole-4-carboxamide]: the IC50 is over 20 µM.

In the case of `Cc1nsc(Nc2cnc(C(F)(F)F)cn2)c1C(=O)Nc1ccc(F)c(OCC2CCN(CC(F)F)CC2)c1` [Example 308, N-(3-{[1-(2,2-difluoroethyl)piperidin-4-yl]methoxy}-4-fluorophenyl)-3-methyl-5-{[5-(trifluoromethyl)pyrazin-2-yl]amino}-1,2-thiazole-4-carboxamide], the IC50 is at least 20 µM.

As to `Cc1nsc(Nc2cnc3ccccc3n2)c1C(=O)Nc1cccc(NS(=O)(=O)C2CCCN(C(=O)OCc3ccccc3)C2)c1` (stereo not shown) [Example 291, benzyl 3-{[3-({[3-methyl-5-(quinoxalin-2-ylamino)-1,2-thiazol-4-yl]carbonyl}amino)phenyl]sulfamoyl} piperidine-1-carboxylate], the IC50 was determined as 14 µM.

With `Cc1nsc(Nc2cc(C#N)ccn2)c1C(=O)Nc1ccc(OC2CCNCC2)nc1` [Example 24, 5-[(4-Cyanopyridin-2-yl)amino]-3-methyl-N-[6-(piperidin-4-yloxy)pyridin-3-yl]-1,2-thiazole-4-carboxamide], the IC50 is at least 20 µM.

Regarding `Cc1nsc(Nc2cnc(C(F)(F)F)cn2)c1C(=O)Nc1ccc(F)c(OCC2CCN(CCF)C2)c1` (stereo not shown) [Example 317, N-(4-fluoro-3-{[1-(2-fluoroethyl)pyrrolidin-3-yl]methoxy}phenyl)-3-methyl-5-{[5-(trifluoromethyl)pyrazin-2-yl]amino}-1,2-thiazole-4-carboxamide], the IC50 is over 20 µM.

`Cc1nsc(Nc2cnc(C(F)(F)F)cn2)c1C(=O)Nc1ccc(F)c(OC2CCN(CCF)CC2)c1` [Example 266, N-(4-fluoro-3-{[1-(2-fluoroethyl)piperidin-4-yl]oxy}phenyl)-3-methyl-5-{[5-(trifluoromethyl)pyrazin-2-yl]amino}-1,2-thiazole-4-carboxamide]: the IC50 is over 20 µM.

On to `Cc1nsc(Nc2cnc(C(F)(F)F)cn2)c1C(=O)Nc1ccc(F)c(OCC2CCN(CC(F)F)C2)c1` (stereo not shown) [Example 316, N-(3-{[1-(2,2-difluoroethyl)pyrrolidin-3-yl]methoxy}-4-fluorophenyl)-3-methyl-5-{[5-(trifluoromethyl)pyrazin-2-yl]amino}-1,2-thiazole-4-carboxamide], for which the IC50 was at least 20 µM.

As for `Cc1nsc(Nc2cnc(C(F)(F)F)cn2)c1C(=O)Nc1cccc(NC(=O)OC(C)(C)C)c1` [Example 284, 3-tert-butyl (3-{[(3-methyl-5-{[5-(trifluoromethyl)pyrazin-2-yl]amino}-1,2-thiazol-4-yl)carbonyl]amino}phenyl)carbamate], the IC50 is over 20 µM.

As to `Cc1nsc(Nc2cnc(C(F)(F)F)cn2)c1C(=O)Nc1ccc(F)c(OCCCNCCC(F)(F)F)c1` [Example 307, N-(4-fluoro-3-{3-[(3,3,3-trifluoropropyl)amino]propoxy}phenyl)-3-methyl-5-{[5-(trifluoromethyl)pyrazin-2-yl]amino}-1,2-thiazole-4-carboxamide], the IC50 was at least 20 µM.

For the compound `Cc1nsc(Nc2cnc(C(F)(F)F)cn2)c1C(=O)Nc1ccc(OCCCNCC(F)(F)F)nc1` [Example 292, 3-methyl-N-(6-{3-[(2,2,2-trifluoroethyl)amino]propoxy}pyridin-3-yl)-5-{[5-(trifluoromethyl)pyrazin-2-yl]amino}-1,2-thiazole-4-carboxamide], the IC50 is over 20 µM.

For `Cc1nsc(Nc2cncc(C(F)(F)F)n2)c1C(=O)Nc1ccc(C(=O)NC2CN(CC(F)(F)F)C2)cc1` [Example 280, 3-methyl-N-(4-{[1-(2,2,2-trifluoroethyl)azetidin-3-yl]carbamoyl}phenyl)-5-{[6-(trifluoromethyl)pyrazin-2-yl]amino}-1,2-thiazole-4-carboxamide], the IC50 came to 11 µM.

Regarding `Cc1nsc(Nc2cc(C#N)ccn2)c1C(=O)Nc1cccc(C(=O)NC(C)C)c1` [Example 254, 5-[(4-cyanopyridin-2-yl)amino]-N-[3-(isopropylcarbamoyl)phenyl]-3-methyl-1,2-thiazole-4-carboxamide], the IC50 was over 20 µM.
